This is an account of results in patent US20110105389A1 (priority 2009, published 2011).

The structures appear in SMILES notation.

T1 sequence (Q92847 whole entry): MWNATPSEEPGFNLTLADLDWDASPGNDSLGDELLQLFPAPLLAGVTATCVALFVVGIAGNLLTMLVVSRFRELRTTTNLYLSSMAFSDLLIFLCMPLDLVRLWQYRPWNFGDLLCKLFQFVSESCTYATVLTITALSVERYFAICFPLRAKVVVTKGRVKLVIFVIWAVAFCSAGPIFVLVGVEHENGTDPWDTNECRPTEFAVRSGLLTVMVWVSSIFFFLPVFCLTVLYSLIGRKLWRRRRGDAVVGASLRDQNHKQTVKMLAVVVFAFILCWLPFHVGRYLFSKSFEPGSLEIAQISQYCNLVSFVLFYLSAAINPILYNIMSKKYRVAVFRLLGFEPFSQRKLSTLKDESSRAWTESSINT

The first experiment concerns the target T1, human ghrelin receptor (GRLN, growth hormone secretagogue receptor, hGHS-R1a) (Homo sapiens, UniProt Q92847).
T1 construct: purchased PerkinElmer BioSignal #RBHGHSM, lot#1887; host or cells: HEK-293 cells, stably transfected (membranes)
The experiment is described as follows: Competitive radioligand binding assay (ghrelin receptor), Method B1.
Settings: not given
As for the experimental part: Multiscreen Harvest plates-GF/C (Millipore, #MAHFC1H60) • 4. […] Bottom seal (Millipore, #MATAH0P00) • 7. […] Binding Buffer: 25 mM Hepes (pH 7.4), 1 mM CaCl2, 5 mM MgCl2. 2.5 mM EDTA, 0.4% BSA
Competition experiments were performed in a 300 μl filtration assay format. • 1. 220 μL of membranes diluted in binding buffer • 2. 40 μL of compound diluted in binding buffer • 3.
Compounds were provided frozen on dry ice at a stock concentration of 10 mM diluted in 100% DMSO and stored at −80° C. until the day of testing. On the test day, compounds were allowed to thaw at rt overnight and then diluted in assay buffer according to the desired test concentrations. Under these conditions, the maximal final DMSO concentration in the assay was 0.1%.
Plates were sealed with TopSeal-A, vortexed gently and incubated at rt for 30 min. The reaction was arrested by filtering samples through Multiscreen Harvest plates (pre-soaked in 0.5% polyethyleneimine) using a Tomtec Harvester, washed 9 times with 500 μL of cold 50 mM Tris-HCl (pH 7.4, 4° C.), and then plates were air-dried in a fumehood for 30 min. A bottom seal was applied to the plates prior to the addition of 25 μL of MicroScint-0 to each well. Plates were than sealed with TopSeal-A and counted for 30 sec per well on a TopCount Microplate Scintillation and Luminescence Counter (PerkinElmer) using a count delay of 60 sec. Results were expressed as counts per minute (cpm).
Data were analyzed by GraphPad Prism (GraphPad Software, San Diego, Calif.) using a variable slope non-linear regression analysis. […] Dmax values were calculated using the following formula: […]
For the compound `CCC(C)[C@@H]1NCCOc2ccccc2CC[C@@H](C)NC(=O)[C@@H](Cc2ccccc2)NC(=O)[C@H](C(C)O)N(C)C1=O` (stereo partly shown) [Compound 1342], the IC50 (commonly the concentration needed to halve the response being measured) lay in the range of 1 to 10 nM and the inhibition constant (Ki) (in general, the equilibrium dissociation constant of an inhibitor or competing ligand from its target) was 1 to 10 nM.

On to `CC[C@H](C)[C@@H]1NC/C=C/c2ccccc2CCCNC(=O)[C@@H](Cc2ccccc2)NC(=O)[C@H]([C@H](C)O)N(C)C1=O` [Compound 1346], for which the IC50 was greater than 500 nM and the Ki was 100 to 500 nM.

The experiment is the same for the next values; noted with them: Ghrelin receptor binding activity, Method B1.
`CCC(C)[C@@H]1NC[C@@H](C)Oc2ccccc2CCCNC(=O)[C@@H](Cc2ccccc2)NC(=O)[C@H](C(C)O)N(C)C1=O` (stereo partly shown) [Compound 1301] had a Ki of 100 to 500 nM.

In the case of `CC(O)[C@H]1C(=O)N[C@H](Cc2ccccc2)C(=O)NC/C=C/c2ccccc2OCCN[C@@H](CO)C(=O)N1C` (stereo partly shown) [Compound 1305], the Ki was greater than 500 nM.

`CCC(C)[C@@H]1NCCOc2cccnc2CCCNC(=O)[C@@H](Cc2ccccc2)NC(=O)[C@H](C(C)O)N(C)C1=O` (stereo partly shown) [Compound 1311] gave a Ki greater than 500 nM.

In turn, `CCC(C)[C@@H]1NC[C@@H](C)Oc2ccccc2/C=C/CNC(=O)[C@@H](Cc2ccccc2)NC(=O)[C@H](C(C)O)N(C)C1=O` (stereo partly shown) [Compound 1313] yielded an IC50 of 10 to 100 nM and a Ki of 10 to 100 nM.

Compound `CCC(C)[C@@H]1NC[C@H](C)Oc2ccccc2/C=C/CNC(=O)[C@@H](Cc2ccccc2)NC(=O)[C@H](C(C)O)N(C)C1=O` (stereo partly shown) [Compound 1314] showed a half-maximal inhibitory concentration (IC50) of 100 to 500 nM and a Ki of 100 to 500 nM.

For `CC(O)[C@H]1C(=O)N[C@H](Cc2ccccc2)C(=O)NC/C=C/c2ccccc2OCCN[C@@H](C2CCCC2)C(=O)N1C` (stereo partly shown) [Compound 1320], the IC50 is 10 to 100 nM and the Ki is 10 to 100 nM.

Consider `CCC(C)[C@H]1C(=O)N(C)[C@@H](C(C)O)C(=O)N[C@H](Cc2ccccc2)C(=O)NC/C=C/c2ccccc2OCCN1C` (stereo partly shown) [Compound 1323], for which the inhibition constant Ki was in the range of 10 to 100 nM.

As for `CCC(C)[C@@H]1NCCOc2ccccc2/C=C/CNC(=O)[C@@H](Cc2ccc(N)cc2)NC(=O)[C@H](C(C)O)N(C)C1=O` (stereo partly shown) [Compound 1328], the half-maximal inhibitory concentration (IC50) was in the range of 100 to 500 nM and the Ki lay in the range of 10 to 100 nM.

With `CCC(C)[C@@H]1NCCOc2ccccc2/C=C/CNC(=O)[C@@H](Cc2c[nH]cn2)NC(=O)[C@H](C(C)O)N(C)C1=O` (stereo partly shown) [Compound 1329], the IC50 is 100 to 500 nM and the Ki fell in the range of 10 to 100 nM.

Regarding `CCC(C)[C@@H]1NCCOc2ccccc2/C=C/CNC(=O)[C@@H](Cc2ccncc2)NC(=O)[C@H](C(C)O)N(C)C1=O` (stereo partly shown) [Compound 1330], the concentration for half-maximal inhibition (IC50) was in the range of 100 to 500 nM and the Ki is 10 to 100 nM.

The compound `CCC(C)[C@@H]1NCCOc2ccccc2/C=C/CNC(=O)[C@@H](Cc2ccco2)NC(=O)[C@H](C(C)O)N(C)C1=O` (stereo partly shown) [Compound 1331] had an IC50 of 10 to 100 nM and an inhibitory constant (Ki) of 10 to 100 nM.

Compound `CCC(C)[C@@H]1NCCOc2ccccc2C[C@@H](O)CNC(=O)[C@@H](Cc2ccccc2)NC(=O)[C@H](C(C)O)N(C)C1=O` (stereo partly shown) [Compound 1339] registered an IC50 of 100 to 500 nM and a Ki of 100 to 500 nM.

In turn, `CCC(C)[C@@H]1NCCOc2cc(F)ccc2CC[C@H](C)NC(=O)[C@@H](Cc2ccccc2)NC(=O)[C@H](C(C)O)N(C)C1=O` (stereo partly shown) [Compound 1344] came in with a Ki of 10 to 100 nM.

Compound `CC(O)[C@H]1C(=O)N[C@H](Cc2ccccc2)C(=O)N[C@@H](C)CCc2ccccc2OCCN[C@@H](C2CC2)C(=O)N1C` (stereo partly shown) [Compound 1345] yielded an IC50 of 100 to 500 nM and an inhibition constant (Ki) of 10 to 100 nM.

Compound `CCC(C)[C@@H]1N[C@H](C)COc2ccccc2CCCNC(=O)[C@@H](Cc2ccccc2)NC(=O)[C@H](C(C)O)N(C)C1=O` (stereo partly shown) [Compound 1347] had an IC50 of 100 to 500 nM and a Ki of 100 to 500 nM.

As to `CCC(C)[C@@H]1N[C@@H](C)COc2ccccc2CCCNC(=O)[C@@H](Cc2ccccc2)NC(=O)[C@H](C(C)O)N(C)C1=O` (stereo partly shown) [Compound 1348], the IC50 is greater than 500 nM and the Ki was 100 to 500 nM.

`CCC(C)[C@@H]1NCCOc2ccccc2CCC(C(F)(F)F)NC(=O)[C@@H](Cc2ccccc2)NC(=O)[C@H](C(C)O)N(C)C1=O` (stereo partly shown) [Compound 1349] displayed a Ki of 10 to 100 nM.

`CC(C)C1NCCOc2cc(F)ccc2C=CCNC(=O)C(C(C)c2ccccc2)NC(=O)C(C(C)O)N(C)C1=O` (stereo not shown) [Compound 1689] gave an IC50 of 10 to 100 nM.

Compound `CCCC1CCc2ccccc2OCCNC(C(C)C)C(=O)N(C)C(C(C)O)C(=O)NC(Cc2ccccc2)C(=O)N1` (stereo not shown) [Compound 1694] displayed a half-maximal inhibitory concentration (IC50) greater than 500 nM.

`CC(C)C1CCc2ccccc2OCCNC(C(C)C)C(=O)N(C)C(C(C)O)C(=O)NC(Cc2ccccc2)C(=O)N1` (stereo not shown) [Compound 1695]: the IC50 lay in the range of 100 to 500 nM.

Regarding `CCCC1CCc2ccccc2OCCNC(C(C)C)C(=O)N(C)C(C(C)O)C(=O)NC(Cc2cccc(F)c2)C(=O)N1` (stereo not shown) [Compound 1696], the half-maximal inhibitory concentration (IC50) was greater than 500 nM.

For `CCCC1CCc2ccccc2OCCNC(C(C)C)C(=O)N(C)C(C(C)O)C(=O)NC(Cc2c[nH]c3ccccc23)C(=O)N1` (stereo not shown) [Compound 1697], the IC50 fell in the range of 100 to 500 nM.

With `CC(C)C1CCc2ccccc2OCCNC(C(C)C)C(=O)N(C)C(C(C)O)C(=O)NC(Cc2c[nH]c3ccccc23)C(=O)N1` (stereo not shown) [Compound 1698], the IC50 fell in the range of 10 to 100 nM.

`CCC1CCc2ccc(F)cc2OC(C)CNC(C2(C)CC2)C(=O)N(C)C(C(C)O)C(=O)NC(Cc2c[nH]c3ccccc23)C(=O)N1` (stereo not shown) [Compound 1706] came in with an IC50 of 100 to 500 nM.

Regarding `CC(C)[C@@H]1NCCOc2ccccc2CC[C@H](C(C)C)NC(=O)[C@@H](Cc2cccc(F)c2)NC(=O)[C@H](C(C)O)N(C)C1=O` (stereo partly shown) [Compound 1708], the IC50 is 100 to 500 nM.

In turn, `CC[C@@H]1C#Cc2ccc(Cl)cc2OCCN[C@@H](C(C)C)C(=O)N(C)[C@@H](C(C)O)C(=O)N[C@H](Cc2c[nH]c3ccccc23)C(=O)N1` (stereo partly shown) [Compound 1709] showed an IC50 of 10 to 100 nM.

In turn, `CCC(C)[C@@H]1NCCO[C@H]2CCC[C@H]2CCCNC(=O)[C@@H](Cc2ccc(Cl)cc2)NC(=O)[C@H](C(C)O)N(C)C1=O` (stereo partly shown) [Compound 1714] had an IC50 of 1 to 10 nM.

For the compound `CCC(C)[C@@H]1NCCO[C@H]2CCCC[C@H]2CCCNC(=O)[C@@H](Cc2ccc(Cl)cc2)NC(=O)[C@H](C(C)O)N(C)C1=O` (stereo partly shown) [Compound 1715], the IC50 lay in the range of 1 to 10 nM.

As for `CC[C@@H]1CCc2ccc(F)cc2O[C@H](C)CN[C@@H](C2(C)CC2)C(=O)N(C)[C@@H](C(C)O)C(=O)N[C@H](Cc2cccc(F)c2)C(=O)N1` (stereo partly shown) [Compound 1721], the IC50 fell in the range of 100 to 500 nM.

Turning to `CC[C@@H]1CCc2c(F)cccc2OCCN[C@@H](C(C)C)C(=O)N(C)[C@@H](C(C)O)C(=O)N[C@H](Cc2ccccc2)C(=O)N1` (stereo partly shown) [Compound 1722], the IC50 lay in the range of 10 to 100 nM.

The compound `CC[C@@H]1CCc2c(F)cccc2OCCN[C@@H](C(C)C)C(=O)N(C)[C@@H](C(C)O)C(=O)N[C@H](Cc2cccc(F)c2)C(=O)N1` (stereo partly shown) [Compound 1724] returned an IC50 of 10 to 100 nM.

`CC[C@@H]1CCc2ccc(OC)cc2OCCN[C@@H](C(C)C)C(=O)N(C)[C@@H](C(C)O)C(=O)N[C@H](Cc2c[nH]c3ccccc23)C(=O)N1` (stereo partly shown) [Compound 1727]: the IC50 was greater than 500 nM.

For `CC(O)[C@H]1C(=O)N[C@H](Cc2ccc(Cl)cc2)C(=O)NC/C=C/c2ccccc2OCCN[C@@H](C2CC2)C(=O)N1C` (stereo partly shown) [Compound 1728], the IC50 fell in the range of 10 to 100 nM.

In turn, `CC(C)C[C@@H]1NCCOc2ccccc2/C=C/CNC(=O)[C@@H](Cc2ccc(Cl)cc2)NC(=O)[C@H](C(C)O)N(C)C1=O` (stereo partly shown) [Compound 1731] returned an IC50 of 100 to 500 nM.

Compound `CC(O)[C@H]1C(=O)N[C@H](Cc2ccc(Cl)cc2)C(=O)NC/C=C/c2ccccc2OCCN[C@@H](CC(C)(C)C)C(=O)N1C` (stereo partly shown) [Compound 1733] showed an IC50 of 100 to 500 nM.

In the case of `CCC(C)C1NCCOc2ccccc2C=CCNC(=O)C(Cc2ccc(OC)cc2)NC(=O)C(C(C)O)N(C)C1=O` (stereo not shown) [Compound 1735], the half-maximal inhibitory concentration (IC50) is 10 to 100 nM.

`CCC(C)C1NCCOc2ccccc2C=CCNC(=O)C(Cc2ccc(C)cc2)NC(=O)C(C(C)O)N(C)C1=O` (stereo not shown) [Compound 1736] showed an IC50 of 10 to 100 nM.

Take `CC(O)[C@H]1C(=O)N[C@H](Cc2ccc(Cl)cc2)C(=O)N[C@@H](C)CCc2ccccc2O[C@H](C)CN[C@@H](C2CC2)C(=O)N1C` (stereo partly shown) [Compound 1741]: the IC50 is greater than 500 nM.

Regarding `CC(O)[C@H]1C(=O)N[C@H](Cc2ccc(Cl)cc2)C(=O)N[C@H](C)CCc2ccccc2OCCN[C@@H](C2CCCCC2)C(=O)N1C` (stereo partly shown) [Compound 1744], the IC50 was greater than 500 nM.

`CC[C@@H]1CCc2ccccc2O[C@H](C)CN[C@@H](C2(C)CC2)C(=O)N(C)[C@@H](C(C)O)C(=O)N[C@H](Cc2c[nH]c3ccccc23)C(=O)N1` (stereo partly shown) [Compound 1756] gave an IC50 of 10 to 100 nM.

The compound `CC[C@@H]1CCc2ccc(F)cc2OCCN[C@@H](CC(C)(C)C)C(=O)N(C)[C@@H](C(C)O)C(=O)N[C@H](Cc2c[nH]c3ccccc23)C(=O)N1` (stereo partly shown) [Compound 1764] returned an IC50 greater than 500 nM.

Compound `CC1CCc2ccccc2OCCNC(C(C)(C)C)C(=O)N(C)C(C(C)O)C(=O)NC(Cc2ccc(Cl)cc2)C(=O)N1` (stereo not shown) [Compound 1800] displayed an IC50 of 10 to 100 nM.

Turning to `CC(=O)OC(C)C1C(=O)NC(Cc2ccccc2)C(=O)NCC=Cc2ccccc2OCCNC(C(C)C)C(=O)N1C` (stereo not shown) [Compound 1841], the IC50 is greater than 500 nM.
